Laboratory results published in patent US20180252703A1, “AN IN VITRO 3D CELL CULTURE MODEL-BASED TUMOR RELAPSE ASSAY” (INSPHERO AG, priority 2015, published 2018).

Assays:
[1] = tested on: HCT-116 3D InSight colorectal cancer microtissues; test: Tumor relapse assay: 5-day pulsed versus 10-day continuous treatment of HCT-116 microtissues, read by size and intra-tissue ATP, relapse index ReI; format: cell-based; details: for ReI at IC50, times higher than at IC20: ReI at IC50 relative to ReI at IC20; for tumor relapse index (ReI): 5-day pulsed treatment, growth profiles over 10 days; for growth after the 5-day treatment: at the respective IC50 concentration; for tumor re-growth after removing the compound after a 5-day treatment: lower drug concentrations: 6 nM taxol, 50 nM doxorubicin, 125 nM staurosporine, size or intra-tissue ATP content; for phenotype of re-growth after drug removal: phenotypic analysis, taxol at low concentrations (6 nM)
Protocol: (§1) Microtissues were treated in GravityTRAP™ plates with the indicated compound dilutions (n=4), leading to 0.5% DMSO in the cell culture medium. As a control, microtissues were exposed to 0.5% DMSO without a compound. Upon medium exchange, compounds were re-added where indicated. The treatment was performed over 10 days, however, for 2 tissues per group, the compound exposure was discontinued after 5 days and they were thereafter incubated in medium without compound (n=2).
(§2) GravityTRAP™ plates containing treated microtissues were scanned with Cell^3iMager (Dainippon, Japan) with a resolution of 4800 dpi. Microtissue size was assessed with the software provided by the manufacturer.
(§3) Air bubbles interfering with the size analysis were excluded manually, either by adjusting the image section to be analyzed by the software or by cropping the area designated to a microtissue after size measurement. The acquired data was normalized to the non-treated control (S=size of microtissue).
In order to determine the number of viable cells per microtissue, the amount of intracellular ATP as a measure for metabolic activity was determined by using CellTiter-Glo® Luminescent Cell Viability Assay (Promega; Madison, USA). The assay was performed according to the manufacturer's protocol with slight adaptations specific to microtissues. In brief, supernatant was removed and lysis of microtissues initiated by adding 40 μl diluted CellTiter-Glo Reagent (1:2 in PBS). The cell lysis was enhanced by pipetting up and down prior to transfer into an opaque white assay plate. […] The acquired data was normalized to the non-treated control:
To generate the tumor relapse index the growth profiles of the pulsed treatment groups were compared to the growth curves of the vehicle-only treated microtissues and the lowest maximum concentration treated group (FIG. 7). The impact of the pulsed drug treatment was set relative to the control and the maximum response of the respective drug (FIGS. 5 and 6).
To determine a tumor relapse index, the sizes (e.g., diameter, volume or area of an optical cross section) of at least one 3-dimensional cell culture or tissue in the continuous treatment group, the pulsed treatment group and the untreated control group are determined at a given point of time (endpoint measurement).
Then, (i) the difference (e.g., d2) between the size of at least one 3-dimensional cell culture or tissue in the continuous treatment group and at least one 3-dimensional cell culture or tissue in the pulsed treatment group is formed, and
(ii) the difference (e.g., d1) between the size of at least one 3-dimensional cell culture or tissue in the pulsed treatment group and at least one 3-dimensional cell culture or tissue in the untreated control group is formed.
Then, a quotient is formed out of the two differences (e.g., d1/d^2) to deliver a tumor relapse index. Such tumor relapse indices can be determined for different inhibitory concentration of the respective anti-cancer agents.

[2] = tested on: HCT-116 3D InSight colorectal cancer microtissues; test: Dose response of HCT-116 3D microtissues by size (area) after 5 days of compound exposure; format: cell-based; details: Homo sapiens, HCT-116, 120 h; tissue size (area), after 5 days exposure
Protocol: After microtissue formation, spheroids were transferred into GravityTRAP™ plates for further experiments. Medium was refreshed at days 4, 6 and 8 post-transfer to assay plates.
From the stock solutions, two-fold serial dilutions in DMSO were prepared for each compound, leading to 200× concentrated working dilutions.
as §1
IC20 and IC50 values were determined by plotting the tissue size over the compound concentration after incubation over 5 days.
as §2, §3
Dose response based on the size (area) of the tumor microtissue were used to define IC20, IC50 and the lowest maximum response concentration [nM].

COc1cccc2c1C(=O)c1c(O)c3c(c(O)c1C2=O)C[C@@](O)(C(=O)CO)C[C@@H]3O[C@H]1C[C@H](N)[C@H](O)[C@H](C)O1 [doxorubicin]
capacity to re-grow after drug removal ([1]; 50 nM treated group compared with 100 nM treated group): stronger capacity to re-grow
ReI at IC50, times higher than at IC20 [1]: 6.6 times
tumor relapse index (ReI) ([1]; at IC20 concentration): 0.32
tumor relapse index (ReI) ([1]; at IC50 concentration): 2.1
growth after the 5-day treatment [1]: the tumor was still able to grow
tumor re-growth after removing the compound after a 5-day treatment [1]: tumor re-growth was observed
phenotype of re-growth after drug removal [1]: regrew symmetrically
IC20 [2]: 50 nM
IC50 [2]: 200 nM

CC(=O)O[C@H]1C(=O)[C@@]2(C)[C@H]([C@H](OC(=O)c3ccccc3)[C@]3(O)C[C@H](OC(=O)[C@H](O)[C@@H](NC(=O)c4ccccc4)c4ccccc4)C(C)=C1C3(C)C)[C@]1(OC(C)=O)CO[C@@H]1C[C@@H]2O [taxol]
ReI at IC50, times higher than at IC20 [1]: 26 times
tumor relapse index (ReI) ([1]; at IC20 concentration): 0.59
tumor relapse index (ReI) ([1]; at IC50 concentration): 15.3
growth after the 5-day treatment [1]: hardly any growth could be observed
tumor removal ([1]; high concentrations, after 5 days): nearly complete tumor removal
tumor re-growth after removing the compound after a 5-day treatment [1]: tumor re-growth was observed
phenotype of re-growth after drug removal [1]: regrew side-specific
IC20 [2]: 6.25 nM
IC50 [2]: 12.5 nM

CN[C@@H]1C[C@H]2O[C@@](C)([C@@H]1OC)n1c3ccccc3c3c4c(c5c6ccccc6n2c5c31)C(=O)NC4 [staurosporine]
re-growth compared to continuous treated counterparts ([1]; 125 nM and 500 nM, drug removed after 5 days, size and intra-tissue ATP): re-grew substantially
tumor relapse index (ReI) ([1]; at IC50 concentration): 0.56
growth after the 5-day treatment [1]: growth occurred even in a similar extent as in the non-treated control culture
tumor re-growth after removing the compound after a 5-day treatment [1]: tumor re-growth was observed
phenotype of re-growth after drug removal [1]: regrew symmetrically
IC20 [2]: 31.2 nM
